Results as given in patent publication US8557737B2, “Methods of altering poppy characteristics” (priority 2005, dated 2013).

Tests used:
Type in all cases: in vivo, Papaver somniferum
poppy crops [1] = experiment: Example 17: field trial, triasulfuron, mesosulfuron-methyl and metsulfuron-methyl at early run-up and mid-late run-up, morphine crop; conditions: for PLANT HEIGHT: 6 weeks after last application; for LODGING: at capsule harvest
Experimental: (§1) All trials were conducted on poppy crops. Seed was treated with Thiram (5.6 g of Thiram 800/kg seed) and Apron (4 g/kg) and sown at a rate of approximately 750 g/ha. Fertilisers were applied at sowing. Most commonly, either 50:50 lime:superphosphate/triple superphosphate at 125 kg/ha, or lime:superphosphate at 250 kg/ha, were mixed with seed and drilled at a depth of 15 mm. In the same operation, NPK (nitrogen:phosphorus:potassium), at various rates, was banded 75 mm below the seed, unless otherwise stated. All crops were subjected to herbicide sprays for weed control, fungicide sprays for disease control, insecticide sprays if appropriate and were irrigated as required.
(§2) All spray applications were made with a precision sprayer, using Silvan Lurmark flat-fan, low-drift nozzles (LD110-0015). Spray equipment was calibrated to deliver 153 L water/ha.
(§3) At harvest, a 2 m×4 m quadrat was placed in each plot (3 m×6 m, unless otherwise stated) and capsules hand-picked from this area. Capsules were broken up, seed and capsule material separated and weighed. Capsule moisture readings were taken with a moisture meter. Alkaloid yield data were calculated on Pesticide Research Manager (version 5 for Windows) using the formulae below. Briefly, capsule weight was adjusted for moisture to a dry weight, 5% of seed weight was added to this (this amount of capsule material regularly occurs in seed samples after processing) to give a capsule weight per plot. Seed weight was adjusted to 95% of crude weight. Straw weights were determined by multiplying dry capsule weight by 1.3 (estimated amount of stem material in a commercial harvest) and adjusted to 11% moisture. When Lontrel was applied to crops exact capsule and seed weight data were entered. Analyses of variance and a Multiple Range Test were performed on data using Pesticide Research Manager.
Trial to evaluate applications of triasulfuron, mesosulfuron-methyl and metsulfuron-methyl, in a morphine crop. Treatment sprays were applied to with crop at early run-up and mid-late run-up, respectively. Plant heights were measured on 6 weeks after last application and lodging was assessed at capsule harvest.

poppy crops [2] = experiment: Example 10: field trial, triasulfuron and metsulfuron-methyl, morphine crop
Experimental: as §1, §2
as §3, with “Manager. Significant differences (P=0.05) between treatments are denoted by different lower case letters adjacent to treatment means in the tables of results.” for “Manager.”
[…] Treatment sprays were applied to crop at ground cover, mid run-up and bud-emergence, respectively.

poppy crops [3] = experiment: Example 18: field trial, triasulfuron, mesosulfuron-methyl and metsulfuron-methyl at row cover, mid run-up and early hook, morphine crop; conditions: MRU and LRU; for PLANT HEIGHT: 5 weeks after last application; for LODGING: at capsule harvest
Experimental: as §1, §2, §3
Trial to evaluate applications of triasulfuron, mesosulfuron-methyl and metsulfuron-methyl, in a morphine crop. […] Plant heights were measured 5 weeks after last application and lodging at capsule harvest.

poppy crops [4] = experiment: Example 16: field trial, metsulfuron-methyl, mesosulfuron-methyl and triasulfuron at row cover and ground cover/early run-up, morphine crop; conditions: for PLANT HEIGHT: 5 weeks after last application
Experimental: as §1, §2, §3
Trial to evaluate applications of metsulfuron-methyl (Compound 1), mesosulfuron-methyl (Compound 2) and triasulfuron (Compound 3), in a morphine crop. Treatment sprays were applied to crop at row cover and ground cover/early run-up, respectively. Plant heights were assessed 5 weeks after last application and lodging was assessed at capsule harvest.

poppy crops [5] = experiment: Example 19: field trial, sulfosulfuron, thifensulfuron-methyl and metsulfuron-methyl, morphine crop; conditions: applied at M-LRU and LRU-BE; for PLANT HEIGHT: measured some 10 weeks after last application
Experimental: as §1, §2, §3
Trial to evaluate applications of sulfosulfuron, thifensulfuron-methyl and metsulfuron-methyl, in a morphine crop. Treatment sprays were applied to crop at mid-late run-up and late-run-up/bud-emergence, respectively. Plant heights were measured some 10 weeks after the last application. Lodging was assessed at capsule harvest.

[6] = Trt 3: COMPOUND 3 75 MG/HA + PULSE .2% V/V at ERU and M-LRU
[7] = Trt 4: COMPOUND 3 150 MG/HA + PULSE .2% V/V at ERU and M-LRU
[8] = COMPOUND 3 263 MG/HA + PULSE .2 % V/V at GC and RU
[9] = COMPOUND 3 525 MG/HA + PULSE .2 % V/V at GC (one application)
[10] = COMPOUND 3 525 MG/HA + PULSE .2 % V/V at GC and RU
[11] = Trt 3: COMPOUND 3 75 MG/HA + PULSE .2% V/V at RC
[12] = Trt 4: COMPOUND 3 150 MG/HA + PULSE .2% V/V at RC
[13] = Trt 3: COMPOUND 3 75 MG/HA + PULSE .2% V/V at RC and GC/ERU
[14] = Trt 4: COMPOUND 3 150 MG/HA + PULSE .2% V/V at RC and GC/ERU
[15] = 1.35 G/HA + ACTIVATOR .125 % V/V
[16] = 4.5 G/HA + ACTIVATOR .125 % V/V
[17] = 450 MG/HA + ACTIVATOR .125 % V/V

SMILES: COc1nc(C)nc(NC(=O)NS(=O)(=O)c2ccccc2OCCCl)n1 [Compound 3, triasulfuron]
- CAPS/SEED RATIO (poppy crops [1]; [6]): 3.677 c
- CROP WEIGHT (poppy crops [1]; [6]): 2.79 b t/ha
- MORPHINE (poppy crops [1]; [6]): 51.94 a kg/ha
- SEED (poppy crops [1]; [6]): 451 b kg/ha
- STRAW (poppy crops [1]; [6]): 2299 a kg/ha
- STRAW MORPHINE (poppy crops [1]; [6]): 2.26 b %
- PLANT HEIGHT (poppy crops [1]; [6]): 100.2 bc cm
- LODGING (poppy crops [1]; [6]): 1.6 b %
- CAPS/SEED RATIO (poppy crops [1]; [7]): 6.016 b
- CROP WEIGHT (poppy crops [1]; [7]): 1.71 c t/ha
- MORPHINE (poppy crops [1]; [7]): 25.78 c kg/ha
- SEED (poppy crops [1]; [7]): 175 c kg/ha
- STRAW (poppy crops [1]; [7]): 1331 c kg/ha
- STRAW MORPHINE (poppy crops [1]; [7]): 1.93 d %
- PLANT HEIGHT (poppy crops [1]; [7]): 90.4 cm·days
- LODGING (poppy crops [1]; [7]): 11.9 a %
- CAPSULE/SEED RATIO (poppy crops [2]; [8]): 3.170 b
- CROP WEIGHT (poppy crops [2]; [8]): 0.79 d t/ha
- HEIGHT (poppy crops [2]; [8]): 71.0 cm·days
- MORPHINE (poppy crops [2]; [8]): 13.17 d kg/ha
- SEED (poppy crops [2]; [8]): 141 c kg/ha
- STRAW (poppy crops [2]; [8]): 644 d kg/ha
- STRAW MORPHINE (poppy crops [2]; [8]): 2.03 b %
- CAPSULE/SEED RATIO (poppy crops [2]; [9]): 1.762 c
- CROP WEIGHT (poppy crops [2]; [9]): 1.40 c t/ha
- HEIGHT (poppy crops [2]; [9]): 75.6 c cm
- MORPHINE (poppy crops [2]; [9]): 20.55 b kg/ha
- SEED (poppy crops [2]; [9]): 408 b kg/ha
- STRAW (poppy crops [2]; [9]): 992 b kg/ha
- STRAW MORPHINE (poppy crops [2]; [9]): 2.06 b %
- CAPSULE/SEED RATIO (poppy crops [2]; [10]): 1.338 days
- CROP WEIGHT (poppy crops [2]; [10]): 0.17 e t/ha
- HEIGHT (poppy crops [2]; [10]): 55.0 e cm
- MORPHINE (poppy crops [2]; [10]): 1.99 e kg/ha
- SEED (poppy crops [2]; [10]): 60 c kg/ha
- STRAW (poppy crops [2]; [10]): 113 e kg/ha
- STRAW MORPHINE (poppy crops [2]; [10]): 1.76 c %
- CAPS/SEED RATIO (poppy crops [3]; [11]): 1.358 b
- CROP WEIGHT (poppy crops [3]; [11]): 3.43 a t/ha
- MORPHINE (poppy crops [3]; [11]): 51.88 a kg/ha
- SEED (poppy crops [3]; [11]): 1161 b kg/ha
- STRAW (poppy crops [3]; [11]): 2217 a kg/ha
- STRAW MORPHINE (poppy crops [3]; [11]): 2.33 a %
- PLANT HEIGHT (poppy crops [3]; [11]): 93.0 c cm
- LODGING (poppy crops [3]; [11]): 2.2 a %
- CAPS/SEED RATIO (poppy crops [3]; [12]): 2.664 a
- CROP WEIGHT (poppy crops [3]; [12]): 2.32 c t/ha
- MORPHINE (poppy crops [3]; [12]): 37.62 c kg/ha
- SEED (poppy crops [3]; [12]): 482 c kg/ha
- STRAW (poppy crops [3]; [12]): 1797 b kg/ha
- STRAW MORPHINE (poppy crops [3]; [12]): 2.09 c %
- PLANT HEIGHT (poppy crops [3]; [12]): 81.4 cm·days
- LODGING (poppy crops [3]; [12]): 2.6 a %
- CAPS/SEED RATIO (poppy crops [4]; [13]): 1.259 b
- CROP WEIGHT (poppy crops [4]; [13]): 3.47 b t/ha
- MORPHINE (poppy crops [4]; [13]): 49.16 a kg/ha
- SEED (poppy crops [4]; [13]): 1233 c kg/ha
- STRAW (poppy crops [4]; [13]): 2211 a kg/ha
- STRAW MORPHINE (poppy crops [4]; [13]): 2.21 a %
- PLANT HEIGHT (poppy crops [4]; [13]): 103.4 b cm
- CAPS/SEED RATIO (poppy crops [4]; [14]): 1.959 a
- CROP WEIGHT (poppy crops [4]; [14]): 2.18 c t/ha
- MORPHINE (poppy crops [4]; [14]): 32.34 c kg/ha
- SEED (poppy crops [4]; [14]): 581 d kg/ha
- STRAW (poppy crops [4]; [14]): 1589 c kg/ha
- STRAW MORPHINE (poppy crops [4]; [14]): 2.03 b %
- PLANT HEIGHT (poppy crops [4]; [14]): 88.6 c cm

SMILES: COC(=O)c1sccc1S(=O)(=O)NC(=O)Nc1nc(C)nc(OC)n1 [Compound 4, thifensulfuron-methyl]
- CAPSULE/SEED RATIO (poppy crops [5]; [15]): 3.299
- CROP WEIGHT (poppy crops [5]; [15]): 0.22 t/ha
- MORPHINE (poppy crops [5]; [15]): 4.10 kg/ha
- SEED (poppy crops [5]; [15]): 39 kg/ha
- STRAW (poppy crops [5]; [15]): 184 kg/ha
- STRAW MORPHINE % (poppy crops [5]; [15]): 2.23%
- PLANT HEIGHT (poppy crops [5]; [15]): 65 cm
- CAPSULE/SEED RATIO (poppy crops [5]; [16]): 0
- CROP WEIGHT (poppy crops [5]; [16]): 0 t/ha
- MORPHINE (poppy crops [5]; [16]): 0 kg/ha
- SEED (poppy crops [5]; [16]): 0 kg/ha
- STRAW (poppy crops [5]; [16]): 0 kg/ha
- STRAW MORPHINE % (poppy crops [5]; [16]): 0%
- PLANT HEIGHT (poppy crops [5]; [16]): 0 cm
- CAPSULE/SEED RATIO (poppy crops [5]; [17]): 5.209
- CROP WEIGHT (poppy crops [5]; [17]): 0.87 t/ha
- MORPHINE (poppy crops [5]; [17]): 16.19 kg/ha
- SEED (poppy crops [5]; [17]): 103 kg/ha
- STRAW (poppy crops [5]; [17]): 771 kg/ha
- STRAW MORPHINE % (poppy crops [5]; [17]): 2.10%
- PLANT HEIGHT (poppy crops [5]; [17]): 78 cm

SMILES: CCS(=O)(=O)c1nc2ccccn2c1S(=O)(=O)NC(=O)Nc1nc(OC)cc(OC)n1 [Compound 5, sulfosulfuron]
- CAPSULE/SEED RATIO (poppy crops [5]; 60 MG/HA + SWIFT 1 % V/V): 2.324
- CROP WEIGHT (poppy crops [5]; 60 MG/HA + SWIFT 1 % V/V): .96 t/ha
- MORPHINE (poppy crops [5]; 60 MG/HA + SWIFT 1 % V/V): 19.19 kg/ha
- SEED (poppy crops [5]; 60 MG/HA + SWIFT 1 % V/V): 220 kg/ha
- STRAW (poppy crops [5]; 60 MG/HA + SWIFT 1 % V/V): 738 kg/ha
- STRAW MORPHINE % (poppy crops [5]; 60 MG/HA + SWIFT 1 % V/V): 2.6%
- PLANT HEIGHT (poppy crops [5]; 60 MG/HA + SWIFT 1 % V/V): 73 cm
- CAPSULE/SEED RATIO (poppy crops [5]; 180 MG/HA + SWIFT 1 % V/V): 2.898
- CROP WEIGHT (poppy crops [5]; 180 MG/HA + SWIFT 1 % V/V): 1.15 t/ha
- MORPHINE (poppy crops [5]; 180 MG/HA + SWIFT 1 % V/V): 22.90 kg/ha
- SEED (poppy crops [5]; 180 MG/HA + SWIFT 1 % V/V): 223 kg/ha
- STRAW (poppy crops [5]; 180 MG/HA + SWIFT 1 % V/V): 931 kg/ha
- STRAW MORPHINE % (poppy crops [5]; 180 MG/HA + SWIFT 1 % V/V): 2.46%
- PLANT HEIGHT (poppy crops [5]; 180 MG/HA + SWIFT 1 % V/V): 75 cm
- CAPSULE/SEED RATIO (poppy crops [5]; 600 MG/HA + SWIFT 1 % V/V): 4.564
- CROP WEIGHT (poppy crops [5]; 600 MG/HA + SWIFT 1 % V/V): 0.89 t/ha
- MORPHINE (poppy crops [5]; 600 MG/HA + SWIFT 1 % V/V): 20.74 kg/ha
- SEED (poppy crops [5]; 600 MG/HA + SWIFT 1 % V/V): 118 kg/ha
- STRAW (poppy crops [5]; 600 MG/HA + SWIFT 1 % V/V): 774 kg/ha
- STRAW MORPHINE % (poppy crops [5]; 600 MG/HA + SWIFT 1 % V/V): 2.68%
- PLANT HEIGHT (poppy crops [5]; 600 MG/HA + SWIFT 1 % V/V): 80 cm
